According to a melting point compilation (Tetko et al.):

Structure (SMILES)	melting point [°C]
COC(OC)(C(=O)c1ccccc1)c1ccccc1	66
OCCC(F)(F)C(F)(F)C(F)(F)C(F)(F)C(F)(F)C(F)(F)C(F)(F)C(F)(F)C(F)(F)C(F)(F)F	92.7
NC(=S)c1cccc(Cl)c1Cl	121 to 123
CCOC(=O)C1=C(C)OC(N)=C(c2nc3ccccc3s2)C1c1ccc(N(C)C)cc1 (stereo not drawn)	215
CC(Cl)C(C)Cl (stereo not drawn)	-80
CON=C(C(=O)Sc1nc2ccccc2s1)c1csc(N)n1	126 to 130
Cc1ccc(-c2cc(N/N=C(/C(=O)c3cccs3)C(=O)C(F)(F)F)[nH]n2)cc1	220
CCCCC(N)C(=O)O (stereo not drawn)	300
CC(C)(c1ccccc1)C(C)(C)c1ccccc1	90 to 110
O=c1[nH]c2ccc(S(=O)(=O)CCO)cc2o1	207 to 211
N#C/C(=C\c1ccc(Cl)cc1)c1nc2ccccc2s1	150
COc1cc(OC)nc(Oc2cccc(Oc3nc(OC)cc(OC)n3)c2C(=O)ON=C(c2ccccc2)c2ccccc2)n1	129
CCCOCC(C)O (stereo not drawn)	-80
Cc1cccc(Oc2ncccc2[N+](=O)[O-])c1C	210 to 213
O=C(Cl)c1ccc2c(c1)OCCCO2	29 to 33
O=[N+]([O-])c1cccnc1Oc1ccc(F)cc1F	63 to 65
c1cc2c3c(cccc3c1)C1=NCCN=C12	95
NS(=O)(=O)c1cc2c(cc1Cl)NC(CSCC(F)(F)F)NS2(=O)=O (stereo not drawn)	206
Cc1cc(C)c2c(c1)CC2(C)O (stereo not drawn)	58
Cc1nc(C(F)(F)F)c(C(=O)Nc2c(Br)cc(OC(F)(F)F)cc2Br)s1	178
O=C(OC(Cl)(Cl)Cl)C(Cl)(Cl)Cl	34
CCCCN(CCO)CCCC	-75
CC1(C)C=CC=C(C(=O)O)C=C1	88.5
CC12CCC(C(=O)C(Br)(Br)C1=O)C2(C)C (stereo not drawn)	155

Structure (SMILES)	melting point [°C]
CC(=O)N[C@@H](Cc1ccccc1)C(=O)N[C@@H](Cc1cc(I)c(O)c(I)c1)C(=O)O	219 to 221
O=Cc1cc(Br)ccc1O	105
CCCc1ccc(O)cc1O	82.5
CC(C)(C)OC(=O)N[C@@H](Cc1c[nH]cn1)C(=O)O	196 to 199
Cc1cc(C)nc(NNC=Cc2ccc([N+](=O)[O-])cc2)n1	183 to 184
Cc1cc[nH]c(=O)c1	130
Nc1cc2ccccc2c2ccccc12	138
N[C@@H]1C=C[C@H](C(=O)O)C1	180
CC(=O)OC1CCC2(C)C(=CC(=O)C3C2CCC2(C)C(OCc4ccccc4)CCC32)C1 (stereo not drawn)	203
Cc1ccccc1[N+](=O)[O-]	-4
O=CCCl	-16.3
Clc1ccc(P(c2ccc(Cl)cc2)c2ccc(Cl)cc2)cc1	103
FCOC(C(F)(F)F)C(F)(F)F	< 25
Brc1cnc2c(c1)OCCN2	116 to 119
Cc1cc(C)c([N+](=O)[O-])c(C)c1	44
OC1COC2C(O)COC12 (stereo not drawn)	88
CCOC(=O)/C(=N\Nc1ccc(C)cc1C)C(=O)C(F)(F)F	139
CC(Oc1ccc(Cl)cc1Cl)C(=O)Nc1ccc2nc(SCc3ccccc3)sc2c1 (stereo not drawn)	169
CCOC(=O)CN=C(c1ccccc1)c1ccccc1	53
CN(C)c1cccc2c(S(=O)(=O)NC3CC(C)(C)N(O)C3(C)C)cccc12 (stereo not drawn)	157 to 161
O=C(Cc1ccccc1)C(Cc1ccccc1)=NNc1ccc([N+](=O)[O-])cc1	174
N[C@@H](CCCCNC(=O)c1ccccc1)C(=O)O	251 to 256
CC1(c2ccccc2)CC(C(=NOCC(O)CN2CCN(c3ccccc3)CC2)c2cc3ccccc3o2)C1 (stereo not drawn)	96 to 97
Cc1[nH]nc(Cl)c1[N+](=O)[O-]	111
